Several values for one entry are separate records, joined by “and”; a condition that tells them apart may be missing. Identical values can stand only once. Like-named read-outs stand apart in the source and are kept apart here.
Key:
eIF1A = biological target: T1, eIF1A (Homo sapiens, UniProt P47813); type: binding; settings: for fluorescence ratio, eIF1A: background-corrected, relative to DMSO or lowest 1Ai concentration, replicate columns; for WT eIF1A IC50: fluorescence binding; for IC50 concentration (µM), WT eIF1A: summary table, fluorescence binding assay
T1 construct: His-bdSUMO (cleaved yes); made in house; host or cells: E. coli BL-21

NSP1 = NSP1 (Severe acute respiratory syndrome coronavirus 2, UniProt P0DTD1)
eIF1A-RPS10 interaction = biological target: T2, eIF1A-RPS10 interaction (Homo sapiens, UniProt P46783+P47813); assay: Split-Renilla luciferase eIF1A-RPS10 interaction screen, dose-response; type: biochemical
T2 construct: made in house; host or cells: E. coli BL21 (PRSFduet); unpurified lysate supernatant
Method in brief: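 Split-Renilla readout: eIF1A–RPS10 binding restores luciferase activity. Constructs eIF1A-ΔC-Renilla and RPS10-ΔN-Renilla, E. coli BL21, IPTG 0.5 mM, 16 °C o/n; sonicated lysate supernatants in Tris 10 mM/KCl 100 mM/EDTA 0.1 mM. Renilla fragments alone as controls.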

RPS10 = biological target: T3, RPS10 (Homo sapiens, UniProt P46783); type: binding
T3 construct: made in house; host or cells: E. coli BL-21

[1] = test system: cap-proximal AUG GFP reporter in HEK293T cells; type: cell-based; settings: GFP WB densitometry; 20 µM overnight; dmso 0.965946
Source text: Translation from an AUG preceded by a very short 5'UTR (less than 30 nt) is usually inefficient and frequently bypassed, resulting in initiation from a downstream AUG, a phenomenon known as leaky scanning. […] To examine the impact of 1Ais on short 5'UTR initiation, we used a GFP reporter gene containing an AUG located 16 nt downstream from the 5' end followed by a second in-frame downstream AUG (Fig. 1F; Appendix Fig. S1B). Cells were transfected with this GFP reporter gene followed by exposure to DMSO (vehicle) and 1Ais. Initiations from upstream (US) or downstream (DS) AUGs were determined by western blot (WB) with anti-GFP antibodies and the ratio between the US and DS AUG was determined.
For the analysis of translation from very short 5'UTR and Leaky scanning, HEK293T cells were transfected with a GFP (20 ng/well) reporter gene driven by a cap-proximal and downstream AUGs (Elfakess et al, [2011]) together with a luciferase reporter gene (100 ng/well) as normalizing control and treated with 20 µM of 1Ais as described above. GFP levels were determined by Western blot (WB) (GFP antibody, Abcam #ab290) and quantified by densitometry (ImageJ) and normalized to the measured luciferase activity.
HEK293T cells were transfected with the GFP reporter gene schematically shown on the top. The first
AUG is […] from the 5’ end and the downstream AUG is in the same frame. Six hours after transfection, cells were treated with 1Ais. After overnight exposure to 1Ais, GFP expression was analyzed by WB using anti -GFP antibodies.
US/DS ratio was determined by densitometry and represents the long protein expression (upstream AUG, US) vs the […]
biological replicates. (C-D) Analysis of reporter genes mRNA levels after 1Ais treatment.

[2] = summary table, read-out: IC50 concentration (µM), IC50 screen
[3] = summary table, fluorescence binding assay, read-out: IC50 concentration (µM), RPS10

T2 sequence (P47813 whole entry, one chain of several): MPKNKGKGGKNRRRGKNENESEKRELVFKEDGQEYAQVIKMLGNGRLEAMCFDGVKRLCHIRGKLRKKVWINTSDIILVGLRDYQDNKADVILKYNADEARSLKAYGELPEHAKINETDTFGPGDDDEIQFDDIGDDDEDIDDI
T1 sequence (P47813 whole entry): as the sequence (P47813 whole entry, one chain of several) above

In the case of `Cc1ccc(C)n1-c1cc([N+](=O)[O-])ccc1N1CCN(C(=O)c2ccccc2)CC1` [1Ai-9008], the “fluorescence ratio, eIF1A” value (eIF1A; 1Ai conc. 0.25 uM) is reported as 0.8521 and 1, the “fluorescence ratio, eIF1A” value (eIF1A; 1Ai conc. 0.5 uM) is reported as 0.8814 and 1.016 and the “fluorescence ratio, eIF1A” value (eIF1A; 1Ai conc. 1 uM) is reported as 0.8675 and 0.9766. For the same compound, the “fluorescence ratio, eIF1A” value (eIF1A; 1Ai conc. 2 uM) was 1.139 and 0.9182, the “fluorescence ratio, eIF1A” value (eIF1A; 1Ai conc. 4 uM) was 1.153 and 0.9421 and the “fluorescence ratio, eIF1A” value (eIF1A; 1Ai conc. 8 uM) was 0.9831 and 0.8499. For the same compound, the “fluorescence ratio, eIF1A” value (eIF1A; 1Ai conc. 16 uM) was 0.926 and 0.7716, the “fluorescence ratio, eIF1A” value (eIF1A; 1Ai conc. 32 uM) was 0.9353 and 0.7367 and the “fluorescence ratio, eIF1A” value (eIF1A; 1Ai conc. 64 uM) was 1.131 and 0.7322. For the same compound, the “fluorescence ratio, eIF1A” value (eIF1A; 1Ai conc. 256 uM) was 1.254 and 0.8135, the “WT eIF1A IC50” value (eIF1A) was “No binding” and the “IC50 concentration (µM), WT eIF1A” value (eIF1A) was “No binding”. The “GFP reporter ratio nsp1/gfp, avg” value (NSP1) was 0.4707, the “GFP reporter ratio nsp1/gfp, rep 1” value (NSP1) was 0.4454 and the “GFP reporter ratio nsp1/gfp, rep 2” value (NSP1) was 0.4961. For the same compound, the “gfp signal, mean of duplicate wells” value (NSP1) was 2743.5 and 4942, the “nsp1 signal, mean of duplicate wells” value (NSP1) was 1361 and 2201 and the “ratio (nsp1/gfp)” value (NSP1) was 0.496 and 0.445. The IC50 (eIF1A-RPS10 interaction; [2]) was 27 µM, the “RPS10 fluorescence ratio to control” value (RPS10; 1Ai conc. 0.25 uM) was 1 and the “RPS10 fluorescence ratio to control” value (RPS10; 1Ai conc. 0.5 uM) was 0.9583. For the same compound, the “RPS10 fluorescence ratio to control” value (RPS10; 1Ai conc. 1 uM) was 0.9477, the “RPS10 fluorescence ratio to control” value (RPS10; 1Ai conc. 2 uM) was 0.9687 and the “RPS10 fluorescence ratio to control” value (RPS10; 1Ai conc. 4 uM) was 0.9804. For the same compound, the “RPS10 fluorescence ratio to control” value (RPS10; 1Ai conc. 8 uM) was 0.9597, the “RPS10 fluorescence ratio to control” value (RPS10; 1Ai conc. 16 uM) was 0.9394 and the “RPS10 fluorescence ratio to control” value (RPS10; 1Ai conc. 32 uM) was 1.009. For the same compound, the “RPS10 fluorescence ratio to control” value (RPS10; 1Ai conc. 256 uM) was 1.212, the IC50 (RPS10; read-out: IC50 (line under RPS10 binding data)) was 9.9 µM and the IC50 (RPS10; read-out: RPS10 IC50) was 9.9 µM. The IC50 (RPS10; [3]) was 9.9 µM and the “US/DS ratio, average” value [1] was 0.5847.
With `O=C(CSc1nc(-c2ccccc2)cn1-c1ccccc1)NC(=O)Nc1ccccc1` [1Ai-2383] the “fluorescence ratio, eIF1A” value (eIF1A; 1Ai conc. 0.25 uM) was 0.9677 and 0.9798, the “fluorescence ratio, eIF1A” value (eIF1A; 1Ai conc. 0.5 uM) was 0.9803 and 0.9815 and the “fluorescence ratio, eIF1A” value (eIF1A; 1Ai conc. 1 uM) was 1.02 and 0.9558. The “fluorescence ratio, eIF1A” value (eIF1A; 1Ai conc. 2 uM) was 1.009 and 0.948, the “fluorescence ratio, eIF1A” value (eIF1A; 1Ai conc. 4 uM) was 0.993 and 0.9579 and the “fluorescence ratio, eIF1A” value (eIF1A; 1Ai conc. 8 uM) was 0.9438 and 0.997. For the same compound, the “fluorescence ratio, eIF1A” value (eIF1A; 1Ai conc. 16 uM) was 1.039 and 1.06, the “fluorescence ratio, eIF1A” value (eIF1A; 1Ai conc. 32 uM) was 1.096 and 1.111 and the “fluorescence ratio, eIF1A” value (eIF1A; 1Ai conc. 64 uM) was 1.232 and 1.231. For the same compound, the “fluorescence ratio, eIF1A” value (eIF1A; 1Ai conc. 256 uM) was 1.523 and 1.464, the “WT eIF1A IC50” value (eIF1A) was “No binding” and the “IC50 concentration (µM), WT eIF1A” value (eIF1A) was “No binding”. For the same compound, the “GFP reporter ratio nsp1/gfp, avg” value (NSP1) was 0.4187, the “GFP reporter ratio nsp1/gfp, rep 1” value (NSP1) was 0.4187 and the “gfp signal, mean of duplicate wells” value (NSP1) was 2499.5. For the same compound, the “nsp1 signal, mean of duplicate wells” value (NSP1) was 1046.5, the “ratio (nsp1/gfp)” value (NSP1) was 0.419 and the IC50 (eIF1A-RPS10 interaction; [2]) was 23 µM. For the same compound, the “RPS10 fluorescence ratio to control” value (RPS10; 1Ai conc. 0.25 uM) was 1.003, the “RPS10 fluorescence ratio to control” value (RPS10; 1Ai conc. 0.5 uM) was 0.5095 and the “RPS10 fluorescence ratio to control” value (RPS10; 1Ai conc. 1 uM) was 0.4927. The “RPS10 fluorescence ratio to control” value (RPS10; 1Ai conc. 2 uM) was 0.4799, the “RPS10 fluorescence ratio to control” value (RPS10; 1Ai conc. 4 uM) was 0.3805 and the “RPS10 fluorescence ratio to control” value (RPS10; 1Ai conc. 8 uM) was 0.08815. The “RPS10 fluorescence ratio to control” value (RPS10; 1Ai conc. 16 uM) was 0.2868, the “RPS10 fluorescence ratio to control” value (RPS10; 1Ai conc. 32 uM) was 0.02728 and the “RPS10 fluorescence ratio to control” value (RPS10; 1Ai conc. 64 uM) was 0.2465. The “RPS10 fluorescence ratio to control” value (RPS10; 1Ai conc. 256 uM) was 0.3391, the IC50 (RPS10; fluorescence binding, read-out: RPS10 IC50) was 0.7 µM and the IC50 (RPS10; source data Fig. 2B, read-out: IC50 (line under RPS10 binding data)) was 0.66 µM. For the same compound, the IC50 (RPS10; [3]) was 0.661 µM and the “US/DS ratio, average” value [1] was 0.4898.
With `COc1ccc2oc(C(=O)OC(C)C(=O)Nc3sccc3C(N)=O)c(C)c2c1` (centres unmarked) [1Ai-3044] the “fluorescence ratio, eIF1A” value (eIF1A; 1Ai conc. 0.25 uM) was 0.7896 and 0.9625, the “fluorescence ratio, eIF1A” value (eIF1A; 1Ai conc. 0.5 uM) was 0.8401 and 0.9684 and the “fluorescence ratio, eIF1A” value (eIF1A; 1Ai conc. 1 uM) was 0.783 and 0.965. For the same compound, the “fluorescence ratio, eIF1A” value (eIF1A; 1Ai conc. 2 uM) was 1.321 and 0.9132, the “fluorescence ratio, eIF1A” value (eIF1A; 1Ai conc. 4 uM) was 1.411 and 0.9093 and the “fluorescence ratio, eIF1A” value (eIF1A; 1Ai conc. 8 uM) was 1.361 and 0.8279. For the same compound, the “fluorescence ratio, eIF1A” value (eIF1A; 1Ai conc. 16 uM) was 1.171 and 0.7406, the “fluorescence ratio, eIF1A” value (eIF1A; 1Ai conc. 32 uM) was 1.256 and 0.7959 and the “fluorescence ratio, eIF1A” value (eIF1A; 1Ai conc. 64 uM) was 1.351 and 0.8195. For the same compound, the “fluorescence ratio, eIF1A” value (eIF1A; 1Ai conc. 256 uM) was 1.419 and 0.8072, the “WT eIF1A IC50” value (eIF1A) was “No binding” and the “IC50 concentration (µM), WT eIF1A” value (eIF1A) was “No binding”. For the same compound, the “GFP reporter ratio nsp1/gfp, avg” value (NSP1) was 0.4548, the “GFP reporter ratio nsp1/gfp, rep 1” value (NSP1) was 0.4548 and the “gfp signal, mean of duplicate wells” value (NSP1) was 2086.5. The “nsp1 signal, mean of duplicate wells” value (NSP1) was 949, the “ratio (nsp1/gfp)” value (NSP1) was 0.455 and the IC50 (eIF1A-RPS10 interaction; Appendix Table S1, read-out: IC50 from the split RL screen) was 15 µM. For the same compound, the IC50 (eIF1A-RPS10 interaction; [2]) was 10 µM, the “RPS10 fluorescence ratio to control” value (RPS10; 1Ai conc. 0.25 uM) was 1 and the “RPS10 fluorescence ratio to control” value (RPS10; 1Ai conc. 0.5 uM) was 1.015. The “RPS10 fluorescence ratio to control” value (RPS10; 1Ai conc. 2 uM) was 1.108, the “RPS10 fluorescence ratio to control” value (RPS10; 1Ai conc. 4 uM) was 1.108 and the “RPS10 fluorescence ratio to control” value (RPS10; 1Ai conc. 8 uM) was 1.07. For the same compound, the “RPS10 fluorescence ratio to control” value (RPS10; 1Ai conc. 16 uM) was 0.983, the “RPS10 fluorescence ratio to control” value (RPS10; 1Ai conc. 32 uM) was 0.9928 and the “RPS10 fluorescence ratio to control” value (RPS10; 1Ai conc. 64 uM) was 1.135. The “RPS10 fluorescence ratio to control” value (RPS10; 1Ai conc. 256 uM) was 1.327, the “RPS10 IC50” value (RPS10; fluorescence binding) was “No binding” and the “IC50 concentration (µM), RPS10” value (RPS10; summary table, fluorescence binding assay) was “No binding”. The “US/DS ratio, average” value [1] was 0.9145.

— publication PMC12216609, “Inhibitors of eIF1A-ribosome interaction unveil uORF-dependent regulation of translation initiation and antitumor and antiviral effects” (The EMBO Journal, 2025)
